From patent publication US8623863B2, “Disubstituted azepan orexin receptor antagonists” (Merck Sharp & Dohme Corp., priority 2008, dated 2014)
pKi: −log10 of the molar value.

Target: orexin-2 receptor (OX2R) (Homo sapiens (Human), UniProt O43614)
Assay: radioligand binding assay, OX2R
Conditions: membranes prepared from CHO cells expressing the orexin-2 (OX2) receptor
Experimental: The utility of the compounds in accordance with the present invention as orexin receptor OX1R and/or OX2R antagonists may be readily determined without undue experimentation by methodology well known in the art, including the “FLIPR Ca^2+ Flux Assay” (Okumura et al., Biochem. Biophys. Res. Comm. 280:976-981, 2001). In a typical experiment the OX1 and OX2 receptor antagonistic activity of the compounds of the present invention was determined in accordance with the following experimental method. For intracellular calcium measurements, Chinese hamster ovary (CHO) cells expressing the rat OX1 receptor or the human OX2 receptor, are grown in Iscove's modified DMEM containing 2 mM L-glutamine, […], 1% hypoxanthine-thymidine supplement, 100 U/ml penicillin, 100 ug/ml streptomycin and 10% heat-inactivated fetal calf serum (FCS). The cells are seeded at 20,000 cells/well into Becton-Dickinson black 384-well clear bottom sterile plates coated with poly-D-lysine. All reagents were from GIBCO-Invitrogen Corp. The seeded plates are incubated overnight at 37° C. and 5% CO2. Ala-6,12 human orexin-A as the agonist is prepared as a 1 mM stock solution in 1% bovine serum albumin (BSA) and diluted in assay buffer (HBSS containing 20 mM HEPES, 0.1% BSA and 2.5 mM probenecid, pH7.4) for use in the assay at a final concentration of 70 pM. Test compounds are prepared as 10 mM stock solution in DMSO, then diluted in 384-well plates, first in DMSO, then assay buffer. On the day of the assay, cells are washed 3 times with 100 ul assay buffer and then incubated for 60 min (37° C., 5% CO2) in 60 ul assay buffer containing 1 uM Fluo-4AM ester, 0.02% pluronic acid, and 1% BSA. The dye loading solution is then aspirated and cells are washed 3 times with 100 ul assay buffer. 30 ul of that same buffer is left in each well. Within the Fluorescent Imaging Plate Reader (FLIPR, Molecular Devices), test compounds are added to the plate in a volume of 25 ul, incubated for 5 min and finally 25 ul of agonist is added. Fluorescence is measured for each well at 1 second intervals for 5 minutes and the height of each fluorescence peak is compared to the height of the fluorescence peak induced by 70 pM Ala-6,12 orexin-A with buffer in place of antagonist. For each antagonist, IC50 value (the concentration of compound needed to inhibit 50% of the agonist response) is determined. Alternatively, compound potency can be assessed by a radioligand binding assay (described in Bergman et. al. Bioorg. Med. Chem. Lett. 2008, 18, 1425-1430) in which the inhibition constant (Ki) is determined in membranes prepared from CHO cells expressing either the orexin-1 (OX1) or orexin-2 (OX2) receptor. The intrinsic orexin receptor antagonist activity of a compound which may be used in the present invention may be determined by these assays.

orexin-2 receptor (OX2R), sequence (O43614 whole entry): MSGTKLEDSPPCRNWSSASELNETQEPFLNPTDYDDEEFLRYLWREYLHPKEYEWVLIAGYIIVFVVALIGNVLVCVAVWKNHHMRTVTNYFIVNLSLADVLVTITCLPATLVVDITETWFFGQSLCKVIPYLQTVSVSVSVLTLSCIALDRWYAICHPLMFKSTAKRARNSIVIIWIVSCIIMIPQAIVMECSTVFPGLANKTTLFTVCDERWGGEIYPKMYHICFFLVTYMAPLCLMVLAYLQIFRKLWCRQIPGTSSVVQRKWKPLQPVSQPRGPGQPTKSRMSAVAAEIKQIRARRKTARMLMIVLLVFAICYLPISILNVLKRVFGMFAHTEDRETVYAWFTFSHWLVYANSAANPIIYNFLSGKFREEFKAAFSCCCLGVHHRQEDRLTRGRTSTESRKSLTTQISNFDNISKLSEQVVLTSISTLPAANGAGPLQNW

Cc1ccc(-n2nccn2)c(C(=O)N2CC(COc3ccc(F)cn3)CCCC2C)c1 (stereo not drawn) [2-10, 6-{[(5-fluoropyridin-2-yl)oxy]methyl}-2-methyl-1-[5-methyl-2-(2H-1,2,3-triazol-2-yl)benzoyl]azepane]
pKi: 8.01

Cc1ccc(-c2ncccn2)c(C(=O)N2CC(COc3ccc(F)cn3)CCCC2C)c1 (stereo not drawn) [3-6, 6-{[(5-fluoropyridin-2-yl)oxy]methyl}-2-methyl-1-(5-methyl-2-pyrimidin-2-ylbenzoyl)azepane]
pKi: 7.85

Cc1ccc(-c2ncccn2)c(C(=O)N2CC(COc3ccc(F)c(C)c3)CCCC2C)c1 (stereo not drawn) [3-3, 6-[(4-fluoro-3-methylphenoxy)methyl]-2-methyl-1-(5-methyl-2-pyrimidin-2-ylbenzoyl)azepane]
pKi: 8.00

Cc1ccc(-c2nccs2)c(C(=O)N2CC(COc3ccc(F)c(C)c3)CCCC2C)c1 (stereo not drawn) [3-2, 6-[(4-fluoro-3-methylphenoxy)methyl]-2-methyl-1-[5-methyl-2-(1,3-thiazol-2-yl)benzoyl]azepane]
pKi: 8.38

Cc1cc(OCC2COCC(C)N(C(=O)c3ccccc3-n3nccn3)C2)ccc1F (stereo not drawn) [4-9, 6-[(4-fluoro-3-methylphenoxy)methyl]-3-methyl-4-[2-(2H-1,2,3-triazol-2-yl)benzoyl]-1,4-oxazepane]
pKi: 7.96

Cc1ccc(-c2ncco2)c(C(=O)N2CC(COc3ccc(F)cn3)CCCC2C)c1 (stereo not drawn) [3-4, 6-{[(5-fluoropyridin-2-yl)oxy]methyl}-2-methyl-1-[5-methyl-2-(1,3-oxazol-2-yl)benzoyl]azepane]
pKi: 7.89

Cc1ccc(-n2nccn2)c(C(=O)N2CCCCC(COc3ccc(F)c(C)c3)C2)c1 (stereo not drawn) [1-8, 3-[(4-Fluoro-3-methylphenoxy)methyl]-1-[5-methyl-2-(2H-1,2,3-triazol-2-yl)benzoyl]azepane]
pKi: 8.10

Cc1ccc(-n2nccn2)c(C(=O)N2CC(COc3ccc(F)c(C)c3)COCC2C)c1 (stereo not drawn) [4-8, 6-[(4-fluoro-3-methylphenoxy)methyl]-3-methyl-4-[5-methyl-2-(2H-1,2,3-triazol-2-yl)benzoyl]-1,4-oxazepane]
pKi: 8.06

Cc1ccc(-n2nccn2)c(C(=O)N2CC(COc3ccc(F)c(C)c3)CCCC2C)c1 (stereo not drawn) [2-8, 6-[(4-fluoro-3-methylphenoxy)methyl]-2-methyl-1-[5-methyl-2-(2H-1,2,3-triazol-2-yl)benzoyl]azepane]
pKi: 8.48

CC1CCCC(COc2ccc(F)cn2)CN1C(=O)c1ccccc1-n1nccn1 (stereo not drawn) [2-11, 6-{[(5-fluoropyridin-2-yl)oxy]methyl}-2-methyl-1-[2-(2H-1,2,3-triazol-2-yl)benzoyl]azepane]
pKi: 7.55

Cc1cc(OCC2CCCC(C)N(C(=O)c3ccccc3-n3nccn3)C2)ccc1F (stereo not drawn) [2-9, 6-[(4-fluoro-3-methylphenoxy)methyl]-2-methyl-1-[2-(2H-1,2,3-triazol-2-yl)benzoyl]azepane]
pKi: 8.00

Cc1ccc(-c2nccs2)c(C(=O)N2CC(COc3ccc(F)cn3)CCCC2C)c1 (stereo not drawn) [3-5, 6-{[(5-fluoropyridin-2-yl)oxy]methyl}-2-methyl-1-[5-methyl-2-(1,3-thiazol-2-yl)benzoyl]azepane]
pKi: 8.42
